The values that follow come from patent publication US20100273714A1, “PEPTIDE COMPOUNDS FOR TREATING REFRACTORY STATUS EPILEPTICUS” (SCHWARZ PHARMA AG, priority 2006, published 2010).

In assay [1] the test system is status epilepticus in the rat lithium/pilocarpine model. Nature of the assay: Lithium/pilocarpine model of status epilepticus. The assay is classed as in vivo, Rats.
For assay [2], the system named is self-sustaining status epilepticus (SSSE) in perforant path stimulated rats. Particulars: Mazarati et al. 1999, cited from earlier work; for effectiveness against SSSE, delayed administration (in words): administration delayed / later in status epilepticus; for effectiveness against SSSE, early administration (in words): given before or at onset of SSSE / within the first 10 min of status epilepticus.

The test system is the same in assay [3]. The experiment in a line: Perforant path stimulation model of self-sustaining status epilepticus (acute seizure activity). The assay is classed as in vivo, Male Wistar rats. The protocol: Male Wistar rats were implanted with a stimulating electrode into the angular bundle of the perforant path and a recording electrode into the granule cell layer of the dentate gyrus. Perforant path stimulation (PPS) was delivered for 30 or 60 minutes with the following parameters: 10 s, 20 Hz trains of 1 ms, 30 V pulses delivered every minute together with continuous 2 Hz stimulation with the same parameters.
(§1) The following indices were used to quantify seizure activity: cumulative seizure time (duration of SSSE, subtracting interictal time) and the number of seizure episodes. In addition the number of spontaneous seizures was measured 6 months following induction of SSSE in order to assess status epilepticus induced epileptogenesis.

The subject of assay [4] is status epilepticus induced epileptogenesis (spontaneous recurrent seizures) in perforant path stimulated rats. Nature of the assay: Long term (disease-modifying) effects: spontaneous recurrent seizures at least 6 months after SSSE induction, EEG/video monitoring. The assay is classed as in vivo. The following applies: for spike frequency: early treatment, controls 9534±1114; for number of spontaneous recurrent seizures (SRSs) per week: treatment 10 min after perforant path stimulation, vehicle 110±8; for number of seizures per week: not statistically significant. The method, then:
as §1
SSSE was induced in rats as described in Example 1. After SSSE induction, and at least 6 months wait (“silent period”) the animals were placed in EEG/telemetry/videotape continuously for two weeks for chronic EEG and video monitoring, but the second week, which was more remote from anaesthesia and surgery, was used to calculate seizure frequency (24 hours/day×7). Electrographic seizures were captured by the Harmony software, and were confirmed by offline manual review of the EEG and videotapes. The following indices were counted: total number of spikes of seizures for 7 days of observation, mean seizure duration, light/dark distribution.

Setting [5] is: 50 mg/kg i.p., treatment initiated 40 minutes after PPS, FIG. 1.
Setting [6] is: 50 mg/kg, administered 40 min after onset of SSSE.
Where [7] appears, read: given 10 min after perforant path stimulation, doses 10 mg/kg and above.

On to `CN1C(=O)CN=C(c2ccccc2)c2cc(Cl)ccc21` [diazepam], for which the “efficacy of diazepam alone (in words)” value in assay [1] (administered 15 min after onset of status epilepticus) is on record as “ineffective”. In assay [2], the “effectiveness against SSSE, delayed administration (in words)” value is on record as “lost their effectiveness” and the “effectiveness against SSSE, early administration (in words)” value is “highly effective”.

For the molecule `COC[C@@H](NC(C)=O)C(=O)NCc1ccccc1` [lacosamide, (R)-2-acetamido-N-benzyl-3-methoxypropionamide], the “motor seizure symptoms (in words)” value in assay [1] (50 mg/kg, 10 minutes after onset of status epilepticus) is on record as “reduced motor seizure symptoms”. Besides, the “cumulative seizure duration (in words)” value in assay [3] (setting [5]) is given as “substantial reduction”. Moreover, the “seizure frequency (in words)” value in assay [3] (setting [5]) was “substantial reduction”. Further, the “reduction in cumulative seizure duration” value in assay [3] (setting [6]) amounted to 40%. For the same molecule, the “reduction in seizure frequency” value in assay [3] (setting [6]) is recorded as 40%. The “anticonvulsant effect (in words)” value in assay [3] (given 10 min after perforant path stimulation) is listed as “effective as an anticonvulsant”. In assay [3] (setting [7]), the “cumulative time spent seizing after treatment (in words)” value is given as “reduced”. Moreover, the “number of seizures (in words)” value is recorded as “reduced the number of seizures” in assay [3] (setting [7]) and “non-significant reduction” in assay [3] (late treatment, 40 min after perforant path stimulation). Further, the spike frequency came to 7557±1945 spikes/week in assay [4] (3 mg/kg group), 2969±542 spikes/week in assay [4] (30 mg/kg group), 2588±370 spikes/week in assay [4] (50 mg/kg group) and 3536±380 spikes/week in assay [4] ("mg/kg" group (dose not given)). The “number of spontaneous recurrent seizures (SRSs) per week” value came out at 85±5 SRS/week in assay [4] (3 mg/kg), 66±8 SRS/week in assay [4] (10 mg/kg), 42±8 SRS/week in assay [4] (30 mg/kg) and 34±6 SRS/week in assay [4] (50 mg/kg). Also, the “number of seizures per week” value was 100±7 seizures per week in assay [4] (10 mg/kg, treatment 40 min after perforant path stimulation, control 110±8); 67±67 seizures per week in assay [4] (30 mg/kg, treatment 40 min after perforant path stimulation, control 110±8); 45±29 seizures per week in assay [4] (50 mg/kg, treatment 40 min after perforant path stimulation, control 110±8). For the same molecule, the “median number of seizures” value in assay [4] (30 mg/kg group, treatment 40 min after perforant path stimulation) stood at 0; in assay [4] (50 mg/kg group, treatment 40 min after perforant path stimulation), 0. Besides, the “percentage of rats developing chronic epilepsy / spontaneous recurrent seizures” value in assay [4] (30-50 mg/kg, 6 months after induction of SSSE, vehicle 100%) is reported as 30%. For the same molecule, in assay [4] (30-50 mg/kg, after six months, vehicle average 110 seizures per week), the “reduction of number of seizures per week (seizure frequency)” value turned out to be 60%. Besides, in assay [4] (treatment 40 min after perforant path stimulation, two higher dosage groups combined, control 6/6, p<0.05), the “number of animals showing spontaneous recurrent seizures” value is given as 3/9. Further, the “seizure numbers per week” value in assay [4] (treatment 40 min after perforant path stimulation, two highest treatment groups combined, control 110±8) amounted to 55±32 seizures per week.

In the case of `O=C1NC(=O)C(c2ccccc2)(c2ccccc2)N1` [phenytoin], in assay [2], the “effectiveness against SSSE, delayed administration (in words)” value is listed as “lost their effectiveness” and the “effectiveness against SSSE, early administration (in words)” value is reported as “highly effective”.
